Data: patent publication US12558345B2, “CHK1/2 inhibitors for use in the treatment of neuroblastomas and/or soft tissue sarcomas” (Eli Lilly and Company, priority 2015, dated 2026)

Tests used:
[1] = system: RD, SJCRH30, Saos-2 and RD-ES cell lines; assay: In Vitro Response of Pediatric Cell Lines (western blot); assay type: cell-based; conditions: 24 hours at 5 and 50 nM
Method: Cellular lysates can be obtained from embryonal and alveolar rhabdomyosarcoma (RD and SJCRH30, respectively), osteosarcoma (Saos-2), and Ewing's sarcoma (RD-ES) cell lines treated with 5-(5-(2-(3-aminopropoxy)-6-methoxyphenyl)-1H-pyrazol-3-ylamino)pyrazine-2-carbonitrile methanesulfonic acid monohydrate (Example 5) for 24 hours at 5 and 50 nM final concentration.
A western blot can be run using the cellular lysates described above. […] Higher levels of DNA damage can be observed with CHK1 inhibition. Accordingly, the levels of gammaH2AX, a signal for DNA damage, increase upon treatment with 5-(5-(2-(3-aminopropoxy)-6-methoxyphenyl)-1H-pyrazol-3-ylamino)pyrazine-2-carbonitrile methanesulfonic acid monohydrate (Example 5).

[2] = system: CTG-0142 EWS patient-derived xenograft; assay: Xenograft Tumor Model CTG-0142; assay type: in vivo, mouse; conditions: comparator day 28, p-value 0.376
Method: (§1) The efficacy of 5-(5-(2-(3-aminopropoxy)-6-methoxyphenyl)-1H-pyrazol-3-ylamino)pyrazine-2-carbonitrile methanesulfonic acid monohydrate is measurable in vivo in mouse models of neuroblastomas and human pediatric and adult sarcomas. 5-(5-(2-(3-Aminopropoxy)-6-methoxyphenyl)-1H-pyrazol-3-ylamino)pyrazine-2-carbonitrile methanesulfonic acid monohydrate (10 mg/kg) can be administered subcutaneously to nude mice bearing either cell-derived xenografts (CDX) or patient-derived xenografts (PDX) of human rhabdomyosarcoma, desmoplastic small round cell tumor (DSRCT), osteosarcoma, and Ewing's sarcoma using a 3 day on, 4 day off b.i.d. dosing schedule. Tumor volume and body weight can be measured two times per week. Tumor-specific parameters can be evaluated by immumohistochemistry. […]
(§2) For all “ST” models (encompassing RMS and LMS), patient-derived xenografts are established from viable human tumor tissue and are serially passaged in animals a limited number of times to maintain tumor heterogeneity. […] Tumor response is determined by tumor volume measurement performed twice per week during the course of treatment.

[3] = system: CTG-0241 OS patient-derived xenograft; assay: Xenograft Tumor Model CTG-0241; assay type: in vivo, mouse; conditions: comparator day 28, p-value 0.019
Method: as §1, §2

[4] = system: CTG-0243 OS patient-derived xenograft; assay: Xenograft Tumor Model CTG-0243; assay type: in vivo, mouse; conditions: comparator day 22, p-value 0.089
Method: as §1, §2

[5] = system: CTG-0785 EWS patient-derived xenograft; assay: Xenograft Tumor Model CTG-0785; assay type: in vivo, mouse; conditions: comparator day 18, p-value 0.052
Method: as §1, §2

[6] = system: CTG-0926 DSRCT patient-derived xenograft; assay: Xenograft Tumor Model CTG-0926; assay type: in vivo, mouse; conditions: comparator day 28, p-value <0.001
Method: as §1, §2

[7] = system: CTG-1116 RMS patient-derived xenograft; assay: Xenograft Tumor Model CTG-1116; assay type: in vivo, mouse; conditions: comparator day 17, p-value <0.001
Method: as §1, §2

[8] = system: SH-SY5Y human NBM cancer cell xenograft; assay: Xenograft Tumor Model SH-SY5Y; assay type: in vivo, mouse; conditions: comparator day 28, 8 mg/kg dose, p-value <0.001
Method: The following protocol can be used to measure reductions in tumor volume in response to an active pharmaceutical ingredient. Expand human NBM cancer cells SH-SY5Y (ATCC, #CRL-2226) in culture, harvest, and inject 5×10^6 cells in 200 μL of 1:1 solution of HBSS and Matrigel® subcutaneously into the right rear flank of female CD-1 nu/nu mice (20-24 g, Charles River Laboratories). Expand human NBM cancer cells KELLY (Sigma-#92110411) in culture, harvest, and inject 5×10^6 cells in 200 μL of 1:1 solution of HBSS and Matrigel® subcutaneously into the right rear flank of female CB-17 SCID mice (20-24 g, Charles River Laboratories). Expand human NBM cancer cells IMR-32 (ATCC, #CCL-127) in culture, harvest, and inject 5×10^6 cells in 200 μL of 1:1 solution of HBSS and Matrigel® subcutaneously into the right rear flank of female CB-17 SCID mice (20-24 g, Charles River Laboratories).
as §2

[9] = system: SJCRH-30 human RMS cancer cell xenograft; assay: Xenograft Tumor Model SJCRH-30; assay type: in vivo, mouse
Method: (§3) The efficacy of 5-(5-(2-(3-aminopropoxy)-6-methoxyphenyl)-1H-pyrazol-3-ylamino)pyrazine-2-carbonitrile methanesulfonic acid monohydrate is measurable in vivo in mouse models of neuroblastomas and human pediatric and adult sarcomas. 5-(5-(2-(3-Aminopropoxy)-6-methoxyphenyl)-1H-pyrazol-3-ylamino)pyrazine-2-carbonitrile methanesulfonic acid monohydrate (10 mg/kg) can be administered subcutaneously to nude mice bearing either cell-derived xenografts (CDX) or patient-derived xenografts (PDX) of human rhabdomyosarcoma, desmoplastic small round cell tumor (DSRCT), osteosarcoma, and Ewing's sarcoma using a 3 day on, 4 day off b.i.d. dosing schedule. Tumor volume and body weight can be measured two times per week. Tumor-specific parameters can be evaluated by immumohistochemistry.
Expand human RMS cancer cells SJCRH-30 (St. Jude Children's Research Hospital) in culture, harvest, and inject 5×10^6 cells in 200 μL of HBSS subcutaneously into the right rear flank of female athymic nude mice (20-22 g, Harlan Laboratories). Expand human rhabdomyosarcoma cancer cells RD (ATCC, #CCL-136) in culture, harvest, and inject, 5×10^6 cells in 200 μL of HBSS subcutaneously into the right rear flank of female athymic nude mice (20-22 g, Harlan Laboratories).
(§4) For all “ST” models (encompassing RMS and LMS), patient-derived xenografts are established from viable human tumor tissue and are serially passaged in animals a limited number of times to maintain tumor heterogeneity. In subcutaneous models, athymic nude mice (Crl:NU(NCr)-Foxn1nu) or CB-17 SCID mice (CRL-CB17/Icr-Prkdcscid/IcrIcoCrl) are injected or implanted unilaterally into the flank with tumor fragments harvested from host animals, each implanted from a specific passage lot. For all studies, measure tumor growth and body weight twice per week beginning on the seventh day after implantation. When tumor size reaches 150-300 mm^3, randomize animals and group into groups of 4-7 animals. Prepare test compound in an appropriate vehicle (e.g. vehicle can be 20% Captisol® in sterile water) and administer subcutaneously for three consecutive days followed by a four day dosing holiday and repeat for a minimum of four weeks. Tumor response is determined by tumor volume measurement performed twice per week during the course of treatment.

[10] = system: ST550 LMS patient-derived xenograft; assay: Xenograft Tumor Model ST550; assay type: in vivo, mouse; conditions: comparator day 31, p-value 0.712
Method: as §4

[11] = system: Embryonal Rhabdomyosarcoma xenograft models; assay: Sarcoma xenograft models by tumor subtype: Embryonal Rhabdomyosarcoma; assay type: in vivo, mouse; conditions: age of patients 2-7 years
Method: as §3
Expand human RMS cancer cells SJCRH-30 (St. Jude Children's Research Hospital) in culture, harvest, and inject 5×10^6 cells in 200 μL of HBSS subcutaneously into the right rear flank of female athymic nude mice (20-22 g, Harlan Laboratories). […]
as §2

[12] = system: Leiomyosarcoma xenograft models; assay: Sarcoma xenograft models by tumor subtype: Leiomyosarcoma; assay type: in vivo, mouse
Text: For all “CTG” models (encompassing human RMS, DSRCT, EWS, OS and LMS patient-derived xenograft models), female NCr nude spontaneous mutant mice (5-8 weeks old, Taconic) are implanted unilaterally in the flank region with tumor fragments harvested from donor animals, each implanted from a specific passage lot.
as §4

[13] = system: Liposarcoma xenograft models; assay: Sarcoma xenograft models by tumor subtype: Liposarcoma; assay type: in vivo, mouse; conditions: age of patients 36-74 years
[14] = Leiomyosarcoma, age of patients 48-64 years

COc1cccc(OCCCN)c1-c1cc(Nc2cnc(C#N)cn2)n[nH]1 [Example 5, 5-(5-(2-(3-Aminopropoxy)-6-methoxyphenyl)-1H-pyrazol-3-ylamino)pyrazine-2-carbonitrile methanesulfonic acid monohydrate]
CHK1 protein levels [1]: do not change
levels of gammaH2AX (signal for DNA damage) [1]: increase
levels of phospho-AKT [1]: do not appear to change
phospho-CHK1 (S345) levels [1]: increase
levels of phospho-ERK 1/2 (T202/Y204) ([1]; RD-ES non-responding): increase in three out of four cell lines
phospho-hnRNP-C levels ([1]; unaffected in the RD-ES cell line): increase
% T/C [2]: 66%
% T/C [3]: 48%
% T/C [4]: 43%
% T/C [5]: 57%
% Regression [6]: −76%
% T/C [7]: 8%
% Regression [8]: −21%
% Regression ([9]; SJCRH-30, RMS, comparator day 38, p-value <0.001): −78%
course of the regression upon withdrawal of the drug ([9]; SJCRH-30 aRMS model): immediately reversed
tumor response during treatment ([9]; SJCRH-30 aRMS model): complete regression
response of subsequent regrowth to further treatment ([9]; SJCRH-30 aRMS model, 10 mg/kg): resistant to further treatment
% T/C [10]: 94%
Result of Treatment: Complete Response (models) [11]: 1/3 Complete
Result of Treatment: Stable Disease (models) [11]: Response; 1/3
Result of Treatment: Partial Response (models) [12, 14]: 1/5 Partial
Result of Treatment: Stable Disease (models) [12, 14]: Response; 1/5
activity in PDX models ([12]; PDX models of leiomyosarcoma): active
Result of Treatment: Progressive Disease (models) [13]: 7/7 Progressive
